Measurements taken from patent publication EP3628672A1 (priority 2018, dated 2020).
Where two headings read alike, the source gives them in different places.

Key:
[1] = biological target: T1, purified LasB protein from P. aeruginosa (Pseudomonas aeruginosa, UniProt P14756); experiment: Fluorometric assay to determine Ki (Abz-Ala-Gly-Leu-Ala-p-Nitro-Benzyl-Amide substrate); format: biochemical
T1 construct: purchased Merck or Charles River Laboratories
Protocol: (§1) Experiments were therefore conducted (1) to measure the potency of inhibition of compounds of the invention against purified Pseudomonas aeruginosa LasB enzyme and also experiments were conducted (2) to measure the ability of compounds of the invention to inhibit LasB-catalysed elastin degradation. The first assay uses a commercial fluorescent synthetic peptide and purified LasB enzyme. The LasB hydrolysis kinetics are measured allowing the determination of the IC50 and Ki of the inhibitors; the second is a more physiological assay using dialysed Pseudomonas aeruginosa supernatant as source of enzyme, plus its natural substrate Elastin. It is an "end point assay" that determines the percentage of LasB inhibition by each compound for one particular time point and inhibitor concentration. Technical details are described below:
This assay uses commercially available substrate (Abz-Ala-Gly-Leu-Ala-p-Nitro-Benzyl-Amide (Ex: 340 nm, Em: 415 nm) from Peptide International) and purified LasB protein from P. aeruginosa (provided by Merck or Charles River Laboratories). It is performed to determine LasB elastase activity and assess compound inhibition in 96-well plate format. All compounds of Formula (I) were assessed using the method described below.
Method: 10 to 140 ng/ml purified LasB is incubated with 250 µM Abz-Ala-Gly-Leu-Ala-p-Nitro-Benzyl-Amide in 50 mM Tris-HCl pH 7.4, 2.5 mM CaCl2, 0.01% of Triton X100 at 37°C. LasB activity (corresponding to fluorescence emission induced by substrate hydrolysis) is measured over 30 min at 37°C with a fluorescence plate reader such as the Perkin Elmer Envision or similar. Different range of inhibitor concentrations are routinely assessed depending of inhibitor potency from 0.0016 to 200 µM (2-fold dilutions series) in order to determine IC50.
The equation used to calculate the Ki from IC50 is: Ki = IC50 / (1+([S]/Km)) where [S] = 250 µM and Km = 214 µM.

LasB = biological target: T2, LasB (Pseudomonas aeruginosa, UniProt P14756); experiment: Elastin assay to determine % inhibition (Elastin Congo-Red, dialysed culture supernatant); format: biochemical, P. aeruginosa PAO1; conditions: read-out: Elastin hydrolysis % inhibition @ 50 / 25 µM inhibitor concentration
T2 construct: uses as source of enzyme dialysed supernatant from P. aeruginosa PAO1; endogenous in cells; host or cells: P. aeruginosa PAO1 culture supernatant, filtered and dialysed
T2 sequence (P14756 198-498): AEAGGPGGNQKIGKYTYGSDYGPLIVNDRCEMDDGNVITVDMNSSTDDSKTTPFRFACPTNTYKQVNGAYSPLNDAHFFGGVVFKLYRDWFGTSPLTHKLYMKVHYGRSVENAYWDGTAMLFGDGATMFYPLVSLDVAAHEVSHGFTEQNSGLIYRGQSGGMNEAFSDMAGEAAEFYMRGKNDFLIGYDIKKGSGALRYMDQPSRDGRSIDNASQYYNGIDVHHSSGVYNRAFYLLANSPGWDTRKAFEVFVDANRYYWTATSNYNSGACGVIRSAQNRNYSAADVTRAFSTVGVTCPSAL
Protocol: as §1
The Elastin assay uses as source of enzyme dialysed supernatant from P. aeruginosa PAO1 and the Elastin Congo-Red as substrate. The natural LasB substrate, elastin, is complexed with the congo-red dye (Elastin Congo-Red, ECR). The elastolysis activity from the culture supernatant will degrade elastin and release the congo-red dye into the supernatant. This red dye release can be measured with a spectrophotometer.
Method: To determine LasB elastase activity and assess compound inhibition, an overnight culture of P. aeruginosa strain PAO1 is diluted in LB medium. After reaching an OD600nm of 0.6, this culture is diluted and incubated for additional 18-24 hours in a shaking incubator. Culture supernatants are recovered by centrifugation and filtrated through a […] filter. These supernatants are dialysed (filtration molecules < 20kDa) into a 50 mM Tris-HCl pH 7.4, 2.5 mM CaCl2 solution at 4°C under agitation for 24 hours. Supernatant dialysed is then mixed volume/volume with the ECR suspension (20 mg/mL of ECR in 100 mM Tris-HCl pH 7.4 buffer supplemented with 1 mM CaCl2) supplemented with Triton X100 (final concentration of 0.01%) in presence of DMSO (positive control) and/or different concentrations of compound (routinely 50 to 1.56 µM). As a negative control, the dialysed supernatant is replaced by Tris-HCl solution (50 mM Tris-HCl pH 7.4, 2.5 mM CaCl2). The mixed reaction is then incubated overnight in a 37°C shaking incubator. The reaction supernatant is recovered by centrifugation and the release of congo-red is measured by its absorbance at 495 nm (OD495nm).
Percentage inhibition is determined using the following equation: ((OD495nmvalue of positive control−OD495nmvalue of negative control)−(OD495nmvalue of treated supernatant−OD495nmvalue of positive control))/(OD495nmvalue of positive control−OD495nmvalue of negative control) × 100. [formula]

T1 sequence (P14756 198-498): as above

Compound | Ki [1] | inhibition at 25 µM (LasB) | Ki ([1]; Ki calculated from IC50, [S] = 250 µM, Km = 214 µM, 37°C, pH 7.4)
O=C(O)CC1(C(=O)NCc2ncc(-c3ccccc3)s2)Cc2ccccc2C1 [Example 2, 2-[2-[(5-phenylthiazol-2-yl)methylcarbamoyl]indan-2-yl]acetic acid] | 200 to 10000 nM | 10 to 60% | –
O=C(O)CC1(C(=O)NCc2nc(-c3ccccc3)cs2)Cc2cc(F)c(F)cc2C1 [Example 3, 2-[5,6-difluoro-2-[(4-phenylthiazol-2-yl)methylcarbamoyl]indan-2-yl]acetic acid] | < 50 nM | > 75% | –
COc1cccc(-c2csc(CNC(=O)C3(CC(=O)O)Cc4ccccc4C3)n2)c1 [Example 5, 2-[2-[[4-(3-methoxyphenyl)thiazol-2-yl]methylcarbamoyl]indan-2-yl]acetic acid] | 50 to 200 nM | 60 to 75% | –
COc1ccc(-c2csc(CNC(=O)C3(CC(=O)O)Cc4ccccc4C3)n2)cc1 [Example 6, 2-[2-[[4-(4-methoxyphenyl)thiazol-2-yl]methylcarbamoyl]indan-2-yl]acetic acid] | 50 to 200 nM | > 75% | –
O=C(O)CC1(C(=O)NCc2nc(-c3ccc(Cl)cc3)cs2)Cc2ccccc2C1 [Example 7, 2-[2-[[4-(4-chlorophenyl)thiazol-2-yl]methylcarbamoyl]indan-2-yl]acetic acid] | 50 to 200 nM | 60 to 75% | –
O=C(O)CC1(C(=O)NCc2nc(-c3cccnc3)cs2)Cc2ccccc2C1 [Example 8, 2-[2-[[4-(3-pyridyl)thiazol-2-yl]methylcarbamoyl]indan-2-yl]acetic acid] | 50 to 200 nM | 60 to 75% | –
O=C(O)CC1(C(=O)NCc2nc(-c3ccccn3)cs2)Cc2ccccc2C1 [Example 9, 2-[2-[[4-(2-pyridyl)thiazol-2-yl]methylcarbamoyl]indan-2-yl]acetic acid] | 200 to 10000 nM | 60 to 75% | –
O=C(O)CC1(C(=O)NCc2nc(-c3ccccc3O)cs2)Cc2ccccc2C1 [Example 10, 2-[2-[[4-(2-hydroxyphenyl)thiazol-2-yl]methylcarbamoyl]indan-2-yl]acetic acid] | 50 to 200 nM | 10 to 60% | –
O=C(O)CC1(C(=O)NCc2nc(-c3ccc(O)cc3)cs2)Cc2ccccc2C1 [Example 11, 2-[2-[[4-(4-hydroxyphenyl)thiazol-2-yl]methylcarbamoyl]indan-2-yl]acetic acid] | 50 to 200 nM | 60 to 75% | –
O=C(O)CC1(C(=O)NCc2nc(-c3cccc(O)c3)cs2)Cc2ccccc2C1 [Example 12, 2-[2-[[4-(3-hydroxyphenyl)thiazol-2-yl]methylcarbamoyl]indan-2-yl]acetic acid] | 50 to 200 nM | 60 to 75% | –
O=C(O)CC1(C(=O)NCc2nc(-c3ccccc3OCCO)cs2)Cc2ccccc2C1 [Example 13, 2-[2-[[4-[2-(2-hydroxyethoxy)phenyl]thiazol-2-yl]methylcarbamoyl]indan-2-yl]acetic acid] | 50 to 200 nM | 60 to 75% | –
NCCOc1ccccc1-c1csc(CNC(=O)C2(CC(=O)O)Cc3ccccc3C2)n1 [Example 14, 2-[2-[[4-[2-(2-aminoethoxy)phenyl]thiazol-2-yl]methylcarbamoyl]indan-2-yl]acetic acid] | 200 to 10000 nM | 10 to 60% | –
CN(C)CCNC(=O)c1ccc(-c2csc(CNC(=O)C3(CC(=O)O)Cc4ccccc4C3)n2)cc1 [Example 15, 2-[2-[[4-[4-[2-(dimethylamino)ethylcarbamoyl]phenyl]thiazol-2-yl]methylcarbamoyl]indan-2-yl]acetic acid] | 200 to 10000 nM | 60 to 75% | –
CN1CCN(C(=O)c2ccc(-c3csc(CNC(=O)C4(CC(=O)O)Cc5ccccc5C4)n3)cc2)CC1 [Example 16, 2-[2-[[4-[4-(4-methylpiperazine-1-carbonyl)phenyl]thiazol-2-yl]methylcarbamoyl]indan-2-yl]acetic acid] | 200 to 10000 nM | 60 to 75% | –
CN(C)[C@@H]1CCN(C(=O)c2ccc(-c3csc(CNC(=O)C4(CC(=O)O)Cc5ccccc5C4)n3)cc2)C1 [Example 19, 2-[2-[[4-[4-[(3R)-3-(dimethylamino)pyrrolidine-1-carbonyl]phenyl]thiazol-2-yl]methylcarbamoyl]indan-2-yl]acetic acid] | 200 to 10000 nM | 60 to 75% | –
CN(C)C1CN(C(=O)c2ccc(-c3csc(CNC(=O)C4(CC(=O)O)Cc5ccccc5C4)n3)cc2)C1 [Example 20, 2-[2-[[4-[4-[3-(dimethylamino)azetidine-1-carbonyl]phenyl]thiazol-2-yl]methylcarbamoyl]indan-2-yl]acetic acid] | 200 to 10000 nM | 60 to 75% | –
CN1CCN(C(=O)c2cccc(-c3csc(CNC(=O)C4(CC(=O)O)Cc5ccccc5C4)n3)c2)CC1 [Example 23, 2-[2-[[4-[3-(4-methylpiperazine-1-carbonyl)phenyl]thiazol-2-yl]methylcarbamoyl]indan-2-yl]acetic acid] | 200 to 10000 nM | 60 to 75% | –
CN1CCN(c2ccc(-c3csc(CNC(=O)C4(CC(=O)O)Cc5ccccc5C4)n3)cc2)CC1 [Example 26, 2-[2-[[4-[4-(4-methylpiperazin-1-yl)phenyl]thiazol-2-yl]methylcarbamoyl]indan-2-yl]acetic acid] | 50 to 200 nM | 60 to 75% | –
CN(C)C1CN(c2ccc(-c3csc(CNC(=O)C4(CC(=O)O)Cc5ccccc5C4)n3)cc2)C1 [Example 27] | – | 60 to 75% | 50 to 200 nM
CN1CCN(c2cccc(-c3csc(CNC(=O)C4(CC(=O)O)Cc5ccccc5C4)n3)c2)CC1 [Example 28, 2-[2-[[4-[3-(4-methylpiperazin-1-yl)phenyl]thiazol-2-yl]methylcarbamoyl]indan-2-yl]acetic acid] | 200 to 10000 nM | 60 to 75% | –
CN1C[C@@H]2CN(c3ccc(-c4csc(CNC(=O)C5(CC(=O)O)Cc6ccccc6C5)n4)cc3)C[C@@H]2C1 [Example 30, 2-[2-[[4-[4-[(3aS,6aR)-2-methyl-1,3,3a,4,6,6a-hexahydropyrrolo[3,4-c]pyrrol-5-yl]phenyl]thiazol-2-yl]methylcarbamoyl]indan-2-yl]acetic acid] | 200 to 10000 nM | 10 to 60% | –
COc1cc(N2CCN(C)CC2)ccc1-c1csc(CNC(=O)C2(CC(=O)O)Cc3ccccc3C2)n1 [Example 31, 2-[2-[[4-[2-methoxy-4-(4-methylpiperazin-1-yl)phenyl]thiazol-2-yl]methylcarbamoyl]indan-2-yl]acetic acid] | 50 to 200 nM | 60 to 75% | –
COc1cc(N2CC(N(C)C)C2)ccc1-c1csc(CNC(=O)C2(CC(=O)O)Cc3ccccc3C2)n1 [Example 32, 2-[2-[[4-[4-[3-(dimethylamino)azetidin-1-yl]-2-methoxy-phenyl]thiazol-2-yl]methylcarbamoyl]indan-2-yl]acetic acid] | 50 to 200 nM | > 75% | –
CN1CCN(c2ccc(-c3csc(CNC(=O)C4(CC(=O)O)Cc5ccccc5C4)n3)cn2)CC1 [Example 34, 2-[2-[[4-[6-(4-methylpiperazin-1-yl)-3-pyridyl]thiazol-2-yl]methylcarbamoyl]indan-2-yl]acetic acid] | 50 to 200 nM | 60 to 75% | –
CN(C)C1CN(c2ccc(-c3csc(CNC(=O)C4(CC(=O)O)Cc5ccccc5C4)n3)cn2)C1 [Example 35, 2-[2-[[4-[6-[3-(dimethylamino)azetidin-1-yl]-3-pyridyl]thiazol-2-yl]methylcarbamoyl]indan-2-yl]acetic acid] | 50 to 200 nM | 60 to 75% | –
